Consider one substance from patent US20230095689A1, “METHOD OF CULTURING RECONSTRUCTED HUMAN SKIN” (Korea University Research and Business Foundation, priority 2021, published 2023).

For the data set, the system named is reconstructed human skin produced according to Example 1. As to the kind of experiment: Evaluation of skin barrier function of reconstructed human skin with liquid surfactant (MTT, OECD Test Guideline 439). The format is cell-based. On the procedure: In order to confirm the skin barrier function of the reconstructed human skin produced according to the present invention, the skin barrier function was evaluated using the reconstructed human skin produced in the culture vessel having the inner wall coated with dopamine in Example 1. The skin barrier function was evaluated in a manner in which cell viability relative to an untreated control depending on the treatment time with 1% Triton X-100 was measured, and ET50 (Effective Time 50%), which is the time taken to reach the cell viability of 50%, was determined, according to the barrier evaluation method presented as a performance standard in OECD Test Guideline 439. […] The formazan dye thus formed was dissolved in 2 ml of 2-propanol, 200 μl thereof was placed in each of two wells of a 96-well plate, and optical density at a wavelength of 570 nm was measured using a plate reader, and each optical density of treated group was compared to those in untreated control, thereby calculating relative cell viability, and ET50 (Effective Time 50), which is the time taken to reach the cell viability of 50%, was determined.

In the case of Triton X-100, the relative cell viability result (1% Triton X-100 for 2, 5, 8 and 20 hours, MTT relative to untreated control) is “decreased depending on the treatment time”. In addition, the “ET50 (Effective Time 50), time taken to reach the cell viability of 50%” value (200 μl of 1% Triton X-100 solution on upper surface, MTT, optical density at 570 nm relative to untreated control) is “about 4.5 hours”.
